We go through one cell line from the supplement of paper PMC10307832.

What all share (assay): relative viability (nuclei count vs DMSO), 5 days (fraction); higher = more cells survive
Compound in the assay “Alpelisib + Tozasertib”: Cc1nc(NC(=O)N2CCC[C@H]2C(N)=O)sc1-c1ccnc(C(C)(C)C(F)(F)F)c1 [Alpelisib] + Cc1cc(Nc2cc(N3CCN(C)CC3)nc(Sc3ccc(NC(=O)C4CC4)cc3)n2)n[nH]1 [Tozasertib] (partner 0.1 µM)
The procedure, abridged:
(§1)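 Values are medians from duplicate plates. Each reflects relative viability, defined as the nuclei count of treated wells over that of vehicle wells. Lung cancer cell lines in 1536-well plates were pin-tool dosed one day after seeding with one drug alone or with a fixed anchor-drug dose plus five library-drug doses (not always all listed) in √10 steps, then fixed, stained and imaged at 4× after 5 days.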

Compound in the assay “Vemurafenib + Dasatinib”: CCCS(=O)(=O)Nc1ccc(F)c(C(=O)c2c[nH]c3ncc(-c4ccc(Cl)cc4)cc23)c1F [Vemurafenib] + Cc1nc(Nc2ncc(C(=O)Nc3c(C)cccc3Cl)s2)cc(N2CCN(CCO)CC2)n1 [Dasatinib] (partner 0.075 µM)
The method, boiled down: as §1

Compound in the assay “Vemurafenib + Crizotinib”: CCCS(=O)(=O)Nc1ccc(F)c(C(=O)c2c[nH]c3ncc(-c4ccc(Cl)cc4)cc23)c1F [Vemurafenib] + C[C@@H](Oc1cc(-c2cnn(C3CCNCC3)c2)cnc1N)c1c(Cl)ccc(F)c1Cl [Crizotinib] (partner 1 µM)
The method, boiled down: as §1

Compound in the assay “OSI-027 + Decitabine”: COc1cccc2cc(-c3nc([C@H]4CC[C@H](C(=O)O)CC4)n4ncnc(N)c34)[nH]c12 [OSI-027] + Nc1ncn([C@H]2C[C@H](O)[C@@H](CO)O2)c(=O)n1 [Decitabine] (partner 2 µM)
The method, boiled down:
as §1

As to UMC-11, the relative viability was 0.188 with Alpelisib + Tozasertib (first compound 0.04 µM); 0.198 with Alpelisib + Tozasertib (first compound 0.1265 µM); 0.213 in the assay with Alpelisib + Tozasertib (first compound 0.4 µM); 0.219 with Alpelisib + Tozasertib (first compound 1.265 µM); 0.186 with Alpelisib + Tozasertib (first compound 4 µM); 0.465 in the assay with Vemurafenib + Dasatinib (first compound 0.03162 µM). In addition, the relative viability with Vemurafenib + Dasatinib (first compound 0.1 µM) worked out at 0.459; with Vemurafenib + Dasatinib (first compound 0.3162 µM), 0.455; with Vemurafenib + Dasatinib (first compound 1 µM) it was 0.537; in the assay with Vemurafenib + Crizotinib (first compound 0.03162 µM), 0.638; in the assay with Vemurafenib + Crizotinib (first compound 0.1 µM), 0.616; in the assay with Vemurafenib + Crizotinib (first compound 0.3162 µM), 0.629. The relative viability stood at 0.633 with Vemurafenib + Crizotinib (first compound 1 µM); 0.612 with OSI-027 + Decitabine (first compound 0.01 µM); 0.647 in the assay with OSI-027 + Decitabine (first compound 0.03162 µM); 0.52 in the assay with OSI-027 + Decitabine (first compound 0.1 µM); 0.492 with OSI-027 + Decitabine (first compound 0.3162 µM); 0.417 with OSI-027 + Decitabine (first compound 1 µM).
